In patent US6914045B2, “Glycopeptide antibiotics” (Wyeth Holdings Corporation, priority 2001, dated 2005):

How the values were obtained:
[1] = tested on: Staphylococcus aureus-SMITH (GC 4543); experiment: acute lethal infection in mice; assay type: in vivo; conditions: acute lethal infection, female CD-1 mice, intraperitoneal challenge, intravenous 30 min. after infection, 7 day survival
Protocol: Methods for in Vivo Antibacterial Evaluation
The therapeutic effects of glycopeptide antibiotics of Formula I are determined against acute lethal infections with S. aureus (strain Smith), a penicillin resistant strain of S. pneumoniae (strain GC 1894), and a vancomycin resistant strain of E. fecalis (strain GC 6189 and GC 2246). Female mice, CD-1 (Charles River Laboratories), 20+/−2 gm, are challenged by intraperitoneal injection of sufficient bacteria (suspended in /trypticase Soy Broth or hog gastric mucin) to kill non-treated controls within 24-48 hr. Antibacterial agents, contained in 0.2 mL of saline or 5% dextrose solution, are administered intravenously 30 min. after infection. Five mice are treated at each dose level. The 7 day survival ratios from 3 separate tests are pooled for calculation of median effective dose (ED50).

Streptococcus sp. = experiment: in vitro antibacterial evaluation, MIC by broth dilution; assay type: cell-based; conditions: broth dilution, 18 hours at 35° C.; for MIC Streptococcus pneumoniae (ATCC 6301): strain ATCC 6301; for MIC Streptococcus pneumoniae (GC 1894): strain GC 1894; for MIC Streptococcus pyogenes (GC 4563): strain GC 4563; for MIC Streptococcus agalactiae (GC 4564): strain GC 4564; for MIC Streptococcus pneumoniae (GC 4565): strain GC 4565
Summary of the method: (§1)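 Inoculum 5×10^5 CFU/mL; concentrations 64 to 0.06 μg/mL; MIC defined as lowest inhibitory level. Conducted by broth dilution under NCCLS guidelines.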

Escherichia coli = experiment: as above; assay type: cell-based
Summary of the method: as §1

Staphylococcus sp. = experiment: as above; assay type: cell-based; conditions: broth dilution, 18 hours at 35° C.; for MIC Staphylococcus aureus (GC 1131): strain GC 1131
Summary of the method: as §1

Enterococcus sp. = experiment: as above; assay type: cell-based; conditions: broth dilution, 18 hours at 35° C.; for MIC Enterococcus faecalis (ATCC 29212): strain ATCC 29212; for MIC Enterococcus faecalis (GC 2242): strain GC 2242; for MIC Enterococcus faecium (GC 2243): strain GC 2243; for MIC Enterococcus faecalis (GC 2691): strain GC 2691; for MIC Enterococcus faecalis (GC 3059): strain GC 3059; for MIC Enterococcus faecalis (GC 4552): strain GC 4552; for MIC Enterococcus faecalis (GC 4553): strain GC 4553; for MIC Enterococcus faecalis (GC 4554): strain GC 4554; for MIC Enterococcus faecium (GC 4556): strain GC 4556; for MIC Enterococcus faecium (GC 4557): strain GC 4557; for MIC Enterococcus avium (GC 4558): strain GC 4558; for MIC Enterococcus faecalis (GC 6189): strain GC 6189
Summary of the method: as §1

COc1ccc(Oc2cccc(C3OCC4OC(OC5C(CO)OC(Oc6ccc(CC7NC(=O)C(C(C)c8ccccc8)NC(=O)CNC(=O)C(CO)NC(=O)C(C(O)C8CNC(=N)N8C8OC(CO)C(O)C(O)C8O)NC(=O)C(C(O)C8CNC(=N)N8)NC7=O)cc6)C(O)C5O)C(O)C(O)C4O3)c2)cc1 (stereo not drawn) [Example 180, Cyclo[glycyl-β-methylphenylalanyl-O-[4-O-[4,6-O-[3-(4-methoxyphenoxy)benzylidene]hexopyranosyl]hexopyranosyl]tyrosyl-3-(2-iminoimidazolidin-4-yl)seryl-3-(3-hexopyranosyl-2-iminoimidazolidin-4-yl)serylseryl]]
64 µg/mL: MIC Escherichia coli (GC 4559) (Escherichia coli; strain GC 4559, 18 hours at 35° C.)
4 µg/mL: MIC Enterococcus faecalis (ATCC 29212) (Enterococcus sp.; inoculum 5×10^5 CFU/mL) | MIC Enterococcus faecalis (GC 2242) (Enterococcus sp.; inoculum 5×10^5 CFU/mL) | MIC Enterococcus faecalis (ATCC 29212) (Enterococcus sp.) | MIC Enterococcus faecalis (GC 2242) (Enterococcus sp.)
2 µg/mL: MIC Escherichia coli (GC 4560) (Escherichia coli; strain GC 4560, 18 hours at 35° C.) | MIC Staphylococcus aureus (GC 1131) (Staphylococcus sp.; inoculum 5×10^5 CFU/mL) | MIC Staphylococcus aureus (ATCC 29213) (Staphylococcus sp.; strain ATCC 29213) | MIC Staphylococcus aureus (GC 1131) (Staphylococcus sp.) | MIC Staphylococcus aureus (GC 3053) (Staphylococcus sp.; strain GC 3053) | MIC Staphylococcus aureus (GC 4541) (Staphylococcus sp.; strain GC 4541) | MIC Staphylococcus aureus (GC 4542) (Staphylococcus sp.; strain GC 4542) | MIC Staphylococcus aureus (GC 4544) (Staphylococcus sp.; strain GC 4544) | MIC Staphylococcus aureus (GC 4545) (Staphylococcus sp.; strain GC 4545) | MIC Staphylococcus aureus-SMITH (GC 4543) (Staphylococcus sp.; strain GC 4543) | MIC Staphylococcus haemolyticus (GC 4546) (Staphylococcus sp.; strain GC 4546) | MIC Coagulase Negative Staphylococcus (GC 4547) (Staphylococcus sp.; strain GC 4547) | MIC Enterococcus faecium (GC 2243) (Enterococcus sp.; inoculum 5×10^5 CFU/mL) | MIC Enterococcus faecalis (GC 2691) (Enterococcus sp.; inoculum 5×10^5 CFU/mL) | MIC Enterococcus faecalis (GC 3059) (Enterococcus sp.; inoculum 5×10^5 CFU/mL) | MIC Enterococcus faecalis (GC 4552) (Enterococcus sp.; inoculum 5×10^5 CFU/mL) | MIC Enterococcus faecalis (GC 4553) (Enterococcus sp.; inoculum 5×10^5 CFU/mL) | MIC Enterococcus faecalis (GC 4554) (Enterococcus sp.; inoculum 5×10^5 CFU/mL) | MIC Enterococcus faecium (GC 4556) (Enterococcus sp.; inoculum 5×10^5 CFU/mL) | MIC Enterococcus faecium (GC 4557) (Enterococcus sp.; inoculum 5×10^5 CFU/mL) | MIC Enterococcus avium (GC 4558) (Enterococcus sp.; inoculum 5×10^5 CFU/mL) | MIC Enterococcus faecalis (GC 6189) (Enterococcus sp.; inoculum 5×10^5 CFU/mL) | MIC Enterococcus faecium (GC 2243) (Enterococcus sp.) | MIC Enterococcus faecalis (GC 2691) (Enterococcus sp.) | MIC Enterococcus faecalis (GC 3059) (Enterococcus sp.) | MIC Enterococcus faecalis (GC 4552) (Enterococcus sp.) | MIC Enterococcus faecalis (GC 4553) (Enterococcus sp.) | MIC Enterococcus faecalis (GC 4554) (Enterococcus sp.) | MIC Enterococcus faecium (GC 4556) (Enterococcus sp.) | MIC Enterococcus faecium (GC 4557) (Enterococcus sp.) | MIC Enterococcus avium (GC 4558) (Enterococcus sp.) | MIC Enterococcus faecalis (GC 6189) (Enterococcus sp.)
1 µg/mL: MIC Staphylococcus aureus (GC 3051) (Staphylococcus sp.; strain GC 3051) | MIC Coagulase Negative Staphylococcus (GC 4548) (Staphylococcus sp.; strain GC 4548) | MIC Coagulase Negative Staphylococcus (GC 4549) (Staphylococcus sp.; strain GC 4549) | MIC Coagulase Negative Staphylococcus (GC 4551) (Staphylococcus sp.; strain GC 4551)
0.5 µg/mL: MIC Coagulase Negative Staphylococcus (GC 6257) (Staphylococcus sp.; strain GC 6257)
0.05 mg/kg: median effective dose (ED50), Staphylococcus aureus-SMITH (GC 4543) [1]
>64 µg/mL: MIC Escherichia coli (ATCC 25922) (Escherichia coli; strain ATCC 25922, 18 hours at 35° C.)
<0.06 µg/mL: MIC Streptococcus pneumoniae (ATCC 6301) (Streptococcus sp.; inoculum 5×10^5 CFU/mL) | MIC Streptococcus pneumoniae (GC 1894) (Streptococcus sp.; inoculum 5×10^5 CFU/mL) | MIC Streptococcus pyogenes (GC 4563) (Streptococcus sp.; inoculum 5×10^5 CFU/mL) | MIC Streptococcus agalactiae (GC 4564) (Streptococcus sp.; inoculum 5×10^5 CFU/mL) | MIC Streptococcus pneumoniae (GC 4565) (Streptococcus sp.; inoculum 5×10^5 CFU/mL) | MIC Streptococcus pneumoniae (ATCC 6301) (Streptococcus sp.) | MIC Streptococcus pneumoniae (GC 1894) (Streptococcus sp.) | MIC Streptococcus pyogenes (GC 4563) (Streptococcus sp.) | MIC Streptococcus agalactiae (GC 4564) (Streptococcus sp.) | MIC Streptococcus pneumoniae (GC 4565) (Streptococcus sp.)
